Measured values: the NIST ThermoML archive (doi:10.1016/j.jct.2004.09.007)

How the values were obtained:
[1] = 298.15 K; 101.33 kPa; Liquid; Pycnometric method
[2] = molar heat capacity at constant pressure; settings: 101.3 kPa, Liquid, Large sample (1 g) DSC
[3] = molar heat capacity at constant pressure; xn = mol fraction of the nth substance listed; settings: 101.3 kPa, Liquid, Large sample (1 g) DSC, x2 = 0

CC(O)CCO (centres undefined) [1,3-butanediol]
Settings	mass density [kg/m3]
[1]	1000.42

[2]
Settings	molar heat capacity at constant pressure [J/K/mol]
285.15 K	211.74
285.65 K	212.17
288.15 K	213.57
290.65 K	215.06
293.15 K	216.58
295.65 K	218.04
298.15 K	219.62
300.65 K	221.14
303.15 K	222.8
305.65 K	224.37
308.15 K	226.07
310.65 K	227.65
313.15 K	229.24
315.65 K	230.82
318.15 K	232.6
320.65 K	234.14
323.15 K	235.83
325.65 K	237.52
328.15 K	239.08
330.65 K	240.59
333.15 K	242.28
335.65 K	243.86
338.15 K	245.11
340.65 K	247.19
343.15 K	248.62
345.65 K	250.13
348.15 K	251.66
350.65 K	253.24
353.15 K	254.86

CCCCO [butan-1-ol]
Settings	mass density [kg/m3]
[1]	805.82

[2]
Settings	molar heat capacity at constant pressure [J/K/mol]
285.15 K	168.64
285.65 K	169.01
288.15 K	170.39
290.65 K	172
293.15 K	173.56
295.65 K	175.19
298.15 K	176.82
300.65 K	178.53
303.15 K	180.42
305.65 K	182.27
308.15 K	184.15
310.65 K	186.08
313.15 K	187.99
315.65 K	189.99
318.15 K	192.06
320.65 K	194.2
323.15 K	196.35
325.65 K	198.45
328.15 K	200.45
330.65 K	202.76
333.15 K	204.94
335.65 K	207.1
338.15 K	209.17
340.65 K	211.74
343.15 K	213.82
345.65 K	216.35
348.15 K	218.32
350.65 K	220.5
353.15 K	222.81

CCCCO [butan-1-ol] + CC(O)CCO
[3]
Settings	molar heat capacity at constant pressure [J/K/mol]
285.15 K	168.64
285.65 K	169.01
288.15 K	170.39
290.65 K	172
293.15 K	173.56
295.65 K	175.19
298.15 K	176.82
300.65 K	178.53
303.15 K	180.42
305.65 K	182.27
308.15 K	184.15
310.65 K	186.08
313.15 K	187.99
315.65 K	189.99
318.15 K	192.06
320.65 K	194.2
323.15 K	196.35
325.65 K	198.45
328.15 K	200.45
330.65 K	202.76
333.15 K	204.94
335.65 K	207.1
338.15 K	209.17
340.65 K	211.74
343.15 K	213.82
345.65 K	216.35
348.15 K	218.32
350.65 K	220.5
353.15 K	222.81
